According to paper PMC6152131, “Pharmacokinetic Study of Biotransformation Products from an Anxiolytic Fraction of Tilia americana” (Molecules : A Journal of Synthetic Chemistry and Natural …, 2017):

Columns and labels:
[1] = Pharmacokinetic analysis, two-compartment model (PKSolver); format: in vivo, ICR mice; conditions: two-compartment model
Method: The data shown in Table 2 were applied to the program PKSolver. After a single oral administration of 200 mg/kg of the anxiolitic fraction of T. americana, the behavior of the concentration-time data allowed us to determine the main pharmacokinetic parameters under a two-compartment model (Table 3), and the same program provided the graphical behavior of the variables and the adjustment to the two-compartment model.
To evaluate the suitability of the assay for the pharmacokinetic studies, 200 mg/kg of the active fraction was orally administered to the animals. Ten animals were used in each group at different times (0, 5, 10, 15, 30, 60, 120, 240, 480, 720, and 1440 min). Pharmacokinetic calculations were performed using the observed data. All data was subsequently processed using the PKSolver add-in program for Microsoft Excel written in Visual Basic for Applications. All values obtained were expressed in mean ± standard deviation.
For the pharmacokinetic assay, the selection was made either from a one-compartment or a two-compartment model, with the use of both the Akaike information criterion (AIC) and the Schwarz criterion (SC). Using these two criteria, one can select which model is more suited to being adjusted, to the point where it reaches the lowest values of the AIC or SC criteria, which means that the chosen model is more parsimonious (less parameters required) and best fits the data (low error prediction).

[2] = Stability of flavonoids and biotransformation products in mouse plasma under different handling conditions; format: in vitro ADME, mice; conditions: for Accuracy Bias 0 h / Observed Conc. 0 h / Accuracy Bias 8 h / Observed Conc. 8 h / Accuracy Bias 24 h / Observed Conc. 24 h: room temperature (25 °C); for Observed Conc. 0 h / Observed Conc. 8 h / Observed Conc. 24 h / Observed Conc. Autosampler (4 °C; 8 h) / Observed Conc. Long-term (−70 °C; 1 month): n = 6; for Accuracy Bias Autosampler (4 °C; 8 h) / Accuracy Bias Long-term (−70°C; 1 month) / Observed Conc. Autosampler (4 °C; 8 h) / Observed Conc. Long-term (−70 °C; 1 month): storage stability
Method in brief: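 Mouse plasma QC samples containing the flavonoids and their biotransformation products were tested for stability across storage and handling conditions, including long-term, autosampler and bench-top tests. Samples were extracted with methanol, filtered, and analyzed by HPLC on an RP-18e column with acetonitrile–water (55:45) at 1 mL/min and detection at λ = 220 nm. Results were compared against fresh QC samples; stability required deviation below 15%.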

[3] = Plasma concentration after a single oral dose of the anxiolytic fraction (HPLC); format: in vivo, ICR mice; conditions: mouse, plasma, ICR mice, n = 10
Method in brief: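 Animals dosed orally with 200 mg/kg of active fraction; retro-orbital blood taken from separate groups of ten at 0–1440 min. Lyophilized plasma extracted in methanol and analysed by RP-18 HPLC with diode-array detection at 220 nm against a calibration curve; PK parameters from observed data, mean ± SD.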

[4] = mouse, oral 200 mg/kg anxiolytic fraction, ICR mice plasma
[5] = oral 200 mg/kg anxiolytic fraction, ICR mice plasma
[6] = oral 200 mg/kg anxiolytic fraction, ICR mice plasma, n = 10
[7] = high nominal conc. (7.00; 44.37; 4.50; 31.25 µg/mL)
[8] = low nominal conc. (1.75; 11.02; 1.12; 1.95 µg/mL)
[9] = medium nominal conc. (3.50; 22.18; 2.24; 7.81 µg/mL)

AUC(0-inf) [1, 4]: 183 µg·h/mL | Cmax [1, 4]: 6260 ng/mL | Tmax [1, 4]: 11.2 min | AUC(0-t) ([1]; mouse, oral 200 mg/kg anxiolytic fraction, ICR mice plasma, read-out: AUC0→1440 (converted)): 73700 ng·h/mL | MRT ([1]; mouse, oral 200 mg/kg anxiolytic fraction, ICR mice plasma, read-out: MRT (mean residence time) (converted)): 47.2 h | k el ([1]; mouse, oral 200 mg/kg anxiolytic fraction, ICR mice plasma, read-out: k10 (apparent first-order elimination rate constant from the central compartment) (converted)): 1e-05 s⁻¹ | half-life ([1]; mouse, oral 200 mg/kg anxiolytic fraction, ICR mice plasma, read-out: t1/2β): 1990 min | CL/F (apparent clearance) [1, 5]: 0.018 (mg/Kg)/(μg/mL)/min | V/F (apparent volume of distribution) [1, 5]: 29.46 (mg/Kg)/(µg/mL) | k12 (transfer rate constant central to peripheral compartment) [1, 5]: 0.007 min⁻¹ | k21 (transfer rate constant peripheral to central compartment) [1, 5]: 0.009 min⁻¹ | ka (apparent first-order absorption rate constant) [1, 5]: 0.36 min⁻¹ | t1/2ka (absorption half time) [1, 5]: 1.92 min | t1/2α [1, 5]: 42.25 min | α [1, 5]: 0.02 min⁻¹ | β [1, 5]: 0.0003 min⁻¹ | A (plasma concentration coefficient, central compartment) [1, 6]: 3.19 µg/mL | B (plasma concentration coefficient, peripheral compartment) [1, 6]: 3.75 µg/mL | index: relation between rate constants of k12 with respect to k21 [1]: 0.77 | Accuracy Bias 0 h ([2]; high nominal conc.): 1.64% | Observed Conc. 0 h ([2]; high nominal conc. (rutin 7.00; quercetin glucoside, quercitrin, tiliroside 44.37; kaempferol 4.50; m-HPAA, p-HPAA, DOPAC 31.25 µg/mL)): 31.76 ± 0.28 µg/mL | Accuracy Bias 0 h ([2]; low nominal conc.): 1.44% | Observed Conc. 0 h ([2]; low nominal conc. (rutin 1.75; quercetin glucoside, quercitrin, tiliroside 11.02; kaempferol 1.12; m-HPAA, p-HPAA, DOPAC 1.95 µg/mL)): 1.92 ± 0.02 µg/mL | Accuracy Bias 0 h ([2]; medium nominal conc.): 0.65% | Observed Conc. 0 h ([2]; medium nominal conc. (rutin 3.50; quercetin glucoside, quercitrin, tiliroside 22.18; kaempferol 2.24; m-HPAA, p-HPAA, DOPAC 7.81 µg/mL)): 7.86 ± 0.11 µg/mL | Accuracy Bias 8 h ([2]; high nominal conc.): 1.26% | Observed Conc. 8 h [2, 7]: 31.64 ± 0.28 µg/mL | Accuracy Bias 8 h ([2]; low nominal conc.): 1.40% | Observed Conc. 8 h [2, 8]: 1.92 ± 0.02 µg/mL | Accuracy Bias 8 h ([2]; medium nominal conc.): 2.05% | Observed Conc. 8 h [2, 9]: 7.94 ± 0.11 µg/mL | Accuracy Bias 24 h ([2]; high nominal conc.): 1.26% | Observed Conc. 24 h [2, 7]: 31.64 ± 0.31 µg/mL | Accuracy Bias 24 h ([2]; low nominal conc.): 0.85% | Observed Conc. 24 h [2, 8]: 1.93 ± 0.01 µg/mL | Accuracy Bias 24 h ([2]; medium nominal conc.): 1.01% | Observed Conc. 24 h [2, 9]: 7.89 ± 0.05 µg/mL | Accuracy Bias Autosampler (4 °C; 8 h) ([2]; high nominal conc.): 1.40% | Accuracy Bias Long-term (−70°C; 1 month) ([2]; high nominal conc.): 0.85% | Observed Conc. Autosampler (4 °C; 8 h) [2, 7]: 31.64 ± 0.28 µg/mL | Observed Conc. Long-term (−70 °C; 1 month) [2, 7]: 31.64 ± 0.28 µg/mL | Accuracy Bias Autosampler (4 °C; 8 h) ([2]; low nominal conc.): 1.26% | Accuracy Bias Long-term (−70°C; 1 month) ([2]; low nominal conc.): 1.26% | Observed Conc. Autosampler (4 °C; 8 h) [2, 8]: 1.93 ± 0.02 µg/mL | Observed Conc. Long-term (−70 °C; 1 month) [2, 8]: 1.92 ± 0.01 µg/mL | Accuracy Bias Autosampler (4 °C; 8 h) ([2]; medium nominal conc.): 2.05% | Accuracy Bias Long-term (−70°C; 1 month) ([2]; medium nominal conc.): 1.01% | Observed Conc. Autosampler (4 °C; 8 h) [2, 9]: 7.89 ± 0.11 µg/mL | Observed Conc. Long-term (−70 °C; 1 month) [2, 9]: 7.97 ± 0.05 µg/mL | concentration at 5 min ([3]; 5 min after single oral dose of 200 mg/kg of the anxiolytic fraction, ND = not detected): 5400 ± 360 ng/mL | concentration at 10 min ([3]; 10 min after single oral dose of 200 mg/kg of the anxiolytic fraction): 6710 ± 440 ng/mL | concentration at 15 min ([3]; 15 min after single oral dose of 200 mg/kg of the anxiolytic fraction): 6010 ± 330 ng/mL | concentration at 30 min ([3]; 30 min after single oral dose of 200 mg/kg of the anxiolytic fraction): 5380 ± 510 ng/mL | concentration at 60 min ([3]; 60 min after single oral dose of 200 mg/kg of the anxiolytic fraction): 5310 ± 540 ng/mL | concentration at 120 min ([3]; 120 min after single oral dose of 200 mg/kg of the anxiolytic fraction): 5290 ± 320 ng/mL | concentration at 240 min ([3]; 240 min after single oral dose of 200 mg/kg of the anxiolytic fraction): 5150 ± 230 ng/mL | concentration at 480 min ([3]; 480 min after single oral dose of 200 mg/kg of the anxiolytic fraction): 5080 ± 240 ng/mL | concentration at 720 min ([3]; 720 min after single oral dose of 200 mg/kg of the anxiolytic fraction): 4990 ± 350 ng/mL | concentration at 1440 min ([3]; 1440 min after single oral dose of 200 mg/kg of the anxiolytic fraction): 4910 ± 210 ng/mL
Structure (SMILES): O=C(O)Cc1ccc(O)cc1 [p-HPAA, para-hydroxyphenylacetic acid]
